In patent US6632794B1, “Insulin-like growth factor agonist molecules” (Genentech, Inc., priority 1997, dated 2003):
Several values for one entry are separate records, joined by “and”; a condition that tells them apart may be missing. Identical values can stand only once. Positions of bridges follow the written chain, without caps; N, C: chain ends. Residues, ends and D or L forms follow the SMILES beside them.

How the values were obtained:
[1] = target: T1, IGFBP-1 (Homo sapiens, UniProt P08833); test: Biotin-BP plate (ELISA) assay, biotinylated IGFBP-1 binding to IGF-I; details: for IC50: 20 nM biotinylated IGFBP-1, IGF-I coated plate, read-out: ELISA IC50, inhibition of IGF-I binding to IGFBP-1
T1 construct: biotin (chemical label, EZ-LINK NHS-SS-Biotin)
T1 sequence (P08833 26-259): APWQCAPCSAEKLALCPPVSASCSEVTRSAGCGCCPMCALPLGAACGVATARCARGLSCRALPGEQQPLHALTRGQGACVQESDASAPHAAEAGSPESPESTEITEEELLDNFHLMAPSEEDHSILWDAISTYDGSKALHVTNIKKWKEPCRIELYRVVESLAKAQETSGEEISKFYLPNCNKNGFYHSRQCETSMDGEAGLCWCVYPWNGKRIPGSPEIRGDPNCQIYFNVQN
Method: 1. Biotin-BP Assay (for IGFBP-1 Binders)
(§1) For inhibition of IGFBP-1 binding, IGFBP-1 (as well as IGFBP-3 as a control) were biotinylated as described above. MAXISORP™plates were coated and blocked as described above, using 2 μg/mL IGF-I. In a separate plate, serial dilutions of peptide were premixed with a constant concentration (20 nM) of biotinylated IGFBP-1. After 20 min. at room temperature, the mixture was added to the IGF-I plate. The peptide/IGFBP mix was then removed and the plate was washed ten times with PBS buffer containing 0.05% TWEEN-20™ surfactant. Bound biotin-IGFBP-1 was then detected using streptavidin-conjugated horse radish peroxidase, and a chromogenic substrate.
A second series of peptides made use of non-natural amino acids to probe whether other structural features such as an added methyl group at the alpha carbon, or an isomer (D-alanine) could affect peptide binding to IGFBP-1.
(§2) Substitutions at the N-terminus or C-terminus yielded affinity improvements. […] All of these peptides had similar or improved apparent affinity for IGFBP-1 as compared with bp1-01 and bp1-02 and are thus expected to increase the availability of IGF-I in an in vitro cell culture assay.

[2] = target: T1, IGFBP-1; test: BIAcore kinetics on immobilized IGFBP-1; format: binding; details: IGFBP-1 coupled to dextran chip
Source text: The kinetics of bp1-01 peptide variants were examined in a BIAcore™ (BIAcore, Inc., Piscataway, N.J.) assay using IGFBP-1 covalently coupled via EDC/NHS (as described by the manufacturer) to a dextran chip. […] The latter implies a half-life for peptide dissociation from IGFBP-1 of approximately 28 sec. The association rate constant is moderately fast, consistent with the notion that the peptide may not undergo significant conformation change upon binding to IGFBP-1.

[3] = target: T1, IGFBP-1; test: BIAcore competition assay, IGFBP-1 binding to IGF-II; details: bp1-01 Ala-scan variants by BIAcore
Method: (§3) Two series of synthetic peptide variants were generated to determine which side chains of the bp1-01 peptide might contribute directly to binding IGFBP-1. In the first series an alanine-scanning approach (Cunningham and Wells, Science, 244: 1081-1085 (1989)) was used to remove that portion of each side chain beyond the beta carbon. The contribution of these atoms to the free energy of binding of the peptide to IGFBP-1 was then assessed by measuring the potency (IC50) of the variant for inhibiting IGFBP-1 binding to IGF-I or IGF-II in a BIAcore™competition assay, analogous to that described for IGFBP-3 (see Example 7).

[4] = target: T2, IGFBP-3 (Homo sapiens, UniProt P17936); test: KIRA assay of IGF-I activity with IGF-I plus IGFBP-3 and peptide; format: cell-based; details: FIG. 37D
Method: (§4) C. In Vitro Activation (KIRA)
(§5) The ability of several synthetic peptides to block IGF-I binding to IGFBPs and release functional IGF-I was tested in a KIRA assay of IGF-I activity, as described in Example 1. Cells were treated with IGF-I alone, peptide alone, peptide plus IGF-I, IGF-I plus binding protein (IGFBP-1 or IGFBP-3), or IGF-I plus binding protein (IGFBP-1 or IGFBP-3) and peptide.
It is believed that this would drop to 30 uM with a 1:1 ratio.

[5] = target: T1, IGFBP-1; test: BIAcore competition assay, IGFBP-1 binding to IGF-I; details: bp1-01 Ala-scan variants by BIAcore; wt = bp1-01
Method: as §3, §2

[6] = target: T2, IGFBP-3; test: Biotin-BP plate assay, biotinylated IGFBP-3 binding to IGF-I (control); details: FIG. 34
Method: as §1

[7] = target: T1, IGFBP-1; test: KIRA assay of IGF-I activity with IGF-I plus IGFBP-1 and peptide; format: cell-based; details: peptide plus IGF-I plus IGFBP-1; read-out: IC50 for blocking the inhibition of IGF-I activity by IGFBP-1 (KIRA)
Method: as §4, §5

[8] = target: T1, IGFBP-1; test: IGF-blocking phage assay on IGFBP-1 coated plate; format: binding; details: FIG. 28
Method: To distinguish among these possibilities, phage clones were tested for the ability to bind to IGFBP-1 or IGFBP-3 in the presence and absence of IGF-I.
IGFBP-1 or IGFBP-3 was coated directly onto MAXISORP™ plates as above. Phage from clonal cultures were mixed with IGF-I (100 nM final concentration), and incubated with the immobilized IGFBP for 1 hour at room temperature. The plates were then washed ten times, as above, and a solution of rabbit anti-phage antibody mixed with a goat-anti-rabbit conjugate of horse radish peroxidase was added. After an incubation of 1 hour at room temperature, the plates were developed with a chromogenic substrate, o-phenylenediamine (Sigma). The reaction was stopped with addition of ½ volume of 2.5 M H2SO4. Optical density at 490 nm was measured on a spectrophotometric plate reader.
These peptides are thus likely to occupy an overlapping site with the IGF-binding epitope on IGFBP-3. […] Additional peptide-phage clones were screened similarly, at a low concentration of phage, with and without IGF-I.

[9] = g8 bp1-01 selectants by ELISA plate assay, wt = bp1-01

T2 sequence (P17936 28-291): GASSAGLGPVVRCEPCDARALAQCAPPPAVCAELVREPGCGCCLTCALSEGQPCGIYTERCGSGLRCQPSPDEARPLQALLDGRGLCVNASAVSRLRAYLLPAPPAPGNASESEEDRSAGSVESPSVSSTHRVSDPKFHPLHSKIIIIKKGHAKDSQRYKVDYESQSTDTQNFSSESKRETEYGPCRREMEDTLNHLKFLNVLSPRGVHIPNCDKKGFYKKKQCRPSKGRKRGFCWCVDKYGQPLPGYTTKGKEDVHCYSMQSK

| Compound | IC50 [1] | IGF-I Inhibition IC50 (mut)/IC50 (wt) ([1]; C-terminal bp1-01 variants by ELISA) | IGF-I Inhibition IC50 (mut)/IC50 (wt) ([1]; bp1-01 non-natural variants by ELISA, a = D-alanine, aib = alpha-aminoisobutyrate) | IGF-I Inhibition IC50 (mut)/IC50 (wt) [1, 9] | dissociation rate constant / dissociation kinetics [2] | IGF-II Inhibition IC50 (mut)/IC50 (wt) [3] | effect on IGF-I activity in KIRA with IGF-I plus IGFBP-3 [4] | IGF-I Inhibition IC50 (mut)/IC50 (wt) [5] | inhibition of biotinylated IGFBP-3 binding to IGF-I plate [6] | IC50 [7] | kon ([2]; read-out: association rate constant) | koff ([2]; read-out: dissociation rate constant / dissociation kinetics) | inhibition of phage binding to IGFBP-1 by IGF-I in phage titration [8] |
| --- | --- | --- | --- | --- | --- | --- | --- | --- | --- | --- | --- | --- | --- |
| CC(C)C[C@@H]1NC(=O)[C@H](Cc2c[nH]c3ccccc23)NC(=O)[C@H](CCC(N)=O)NC(=O)[C@H](CC(C)C)NC(=O)[C@@H]2CCCN2C(=O)CNC(=O)[C@H](C)NC(=O)[C@H](CCCNC(=N)N)NC(=O)[C@@H](N)CSSC[C@@H](C(=O)N[C@@H](CCC(=O)O)C(=O)N[C@@H](CCCCN)C(=O)N[C@@H](Cc2ccc(O)cc2)C(=O)N[C@@H](Cc2ccccc2)C(=O)NCC(N)=O)NC1=O [bp1-01] (H-CRAGPLQWLCEKYFG-NH2; disulfide 1-10; N-terminus assumed) | ~180 nM and 180 nM | 1 | 1 | 1 | too rapid to measure | 1 | Neither of these peptides showed activity | 1 | no inhibition | 397 nM | – | – | – |
| CC(C)C[C@@H]1NC(=O)[C@H](Cc2c[nH]c3ccccc23)NC(=O)[C@H](CCC(N)=O)NC(=O)[C@H](CC(C)C)NC(=O)[C@@H]2CCCN2C(=O)CNC(=O)[C@H](C)NC(=O)[C@H](CCCNC(=N)N)NC(=O)[C@@H](NC(=O)CNC(=O)[C@@H](NC(=O)[C@H](CCC(=O)O)NC(=O)[C@@H](N)CO)C(C)C)CSSC[C@@H](C(=O)N[C@@H](CCC(=O)O)C(=O)N[C@@H](CCCCN)C(=O)N[C@@H](Cc2ccc(O)cc2)C(=O)N[C@@H](Cc2ccccc2)C(=O)NCC(N)=O)NC1=O [bp1-02] (H-SEVGCRAGPLQWLCEKYFG-NH2; disulfide 5-14; N-terminus assumed) | ~50 nM and 50 nM | – | – | 0.37 | – | – | Neither of these peptides showed activity | – | no inhibition | 187 nM | 230000 M⁻¹ s⁻¹ | 0.0503 s⁻¹ | – |
| SEVGCRAGPLQWLCEKYF [HL-1] | – | – | – | – | – | – | – | – | – | – | – | – | inhibited by IGF-I for binding to IGFBP-1 at some phage concentration |
